Experimental findings from patent publication US9394295B2, “Antibacterial homopiperidinyl substituted 3,4-dihydro-1H-[1,8]naphthyridinones” (Janssen Sciences Ireland UC, priority 2011, dated 2016) are described below.

Data set [1] can be described thus: Cytotoxicity MTT assay (TOX HELAM). The format is cell-based. The settings on record: human, HelaM cells, read-out: TOX HELAM (222.125) CC50. As for the experimental part:
Cytotoxicity of the compounds was evaluated using the MTT assay. Human HelaM cells grown in 96-well plates were exposed to serial dilutions of the tested compounds (final volume of 0.2 ml) and incubated for 72 hours at 37° C. and 5% CO2. Inhibitors are typically varied over the range of 25 to 0.8 μM. The final DMSO concentration in the assay is 0.5%. MTT (3-(4,5-Dimethylthiazol-2-yl)-2,5-diphenyltetrazolium bromide, a tetrazole) was added and reduced to purple formazan only in living cells. Solubilization of the formazan crystals was achieved by adding 100 μl 2-propanol. Cell viability was determined by measuring the absorbance of the reduced formazan, giving a purple color, at 540 nm and 690 nm. The absorbance measured at 690 nm was automatically subtracted from the absorbance at 540 nm, to eliminate the effects of non-specific absorption. The percent cytotoxicity achieved by the compounds was calculated according to standard methods. Cytotoxicity is reported as CC50, the concentration that causes a 50% reduction in cell viability.
The results are depicted in the table D2 below (TOX HELAM).
Background: Formazan colour is commonly taken as a measure of viable cells.

Data set [2] deals with Staphylococcus aureus ATCC 29213. The data set is described as follows: Antibacterial susceptibility testing: IC90 determination (STA). The settings on record: ATCC29213, S. aureus ATCC 29213, 90% inhibitory concentration for bacterial growth, read-out: STA (361.159) IC90. The format is cell-based. Here is the method:
(§1) The following bacteria were used: Staphylococcus aureus ATCC 29213, methicillin-resistant Staphylococcus aureus (MRSA) ATCC 700788 and Escherichia coli ATCC 35218. The bacteria used in this study were grown overnight in flasks containing 100 ml Mueller-Hinton broth (Difco cat. nr. 0757-17) in sterile de-ionized water, with shaking, at 37° C. Stocks were store at −70° C. until use.
(§2) Bacteria were incubated on a tryptic soy agar plate containing 5% sheep blood (Becton Dickinson cat. nr. 254053) for 18-24 hours at 35° C. in aerobic conditions (first passage). For the second passage, fresh Mueller-Hinton broth is inoculated with 5-10 colonies and grown overnight at 35° C. until turbidity (reaching log-phase) in aerobic conditions is reached. The bacterial suspension is then adjusted to 0.5 McFarland density and further diluted 1:100 in Mueller Hinton broth medium. This is used as inoculum.
(§3) MIC assays were performed by the broth microdilution method in a 96-well format (flat-bottom microtitre plates) with a final volume of 0.1 ml Mueller Hinton broth containing two-fold serial dilutions of compounds and inoculated with 5×10^5 CFU/ml of bacteria (standard inoculum size according to CLSI guidelines). Inhibitors are typically varied over the range of 63 to 0.49 μM. The final DMSO concentration in the assay was 1.25% (maximum tolerable DMSO concentration=6%). In the assays where the effect of human serum on the activity of the compounds against S. aureus was tested, human serum was added at a final concentration of 10%. The plates were incubated at 35° C. for 16-20 hours. At the end of incubation the bacterial growth was quantified fluorometrically. For this, resazurin was added to all wells and the plates were re-incubated. The incubation time is dependent on the type of bacteria. A change in color from blue to pink indicated the growth of bacteria. The fluorescence was read in computer-controlled fluorometer (Fluoroskan Ascent FL, Labsystems) at an excitation wavelength 540 nm and an emission wavelength of 590 nm. The % growth inhibition achieved by the compounds was calculated according to standard methods. The IC90 (expressed in μg/ml) was defined as the 90% inhibitory concentration for bacterial growth. A panel of reference compounds were simultaneously tested for QC approval.

Data set [3] has as its system S. aureus. The data set is described as follows: Antibacterial susceptibility testing: IC90 determination with 10% human serum (STA + 10% HS). The format is cell-based. The settings on record: Staphylococcus aureus; S. aureus with human serum at final concentration of 10%; read-out: STA + 10% HS (361.169) IC90. As for the experimental part: as §1, §2, §3
The results are depicted in the table D2 below (STA+10% HS).

Data set [4] in a line: In vivo pharmacokinetic and oral bioavailability. The settings on record: male Swiss mice; for AUC(0-inf) / C0 / half-life / clearance / bioavailability / Tmax / Cmax: mouse, plasma; for C0 / Cmax: 20% HP-β-CD solution; for half-life: read-out: Half life (t1/2) (converted); for clearance: read-out: Plasma clearance Cl (converted); for bioavailability: p.o. 10 mg/kg vs i.v. 2.5 mg/kg. Here is the method:
The in vivo pharmacokinetics and oral bioavailability of the compound of the examples was/is investigated in male Swiss mice (fed) following single intravenous (i.v.) bolus and oral (p.o.) administration. For the i.v. and p.o. solution formulations, the compound was/is dissolved in a 20% HP-β-CD solution. The pH of the formulations was/is around pH 4. All i.v. formulations were isotonic.

The target of data set [5] is T1, S. aureus ATCC 29213 FabI (Staphylococcus aureus, UniProt Q6GI75).
T1 sequence (Q6GI75 1-256): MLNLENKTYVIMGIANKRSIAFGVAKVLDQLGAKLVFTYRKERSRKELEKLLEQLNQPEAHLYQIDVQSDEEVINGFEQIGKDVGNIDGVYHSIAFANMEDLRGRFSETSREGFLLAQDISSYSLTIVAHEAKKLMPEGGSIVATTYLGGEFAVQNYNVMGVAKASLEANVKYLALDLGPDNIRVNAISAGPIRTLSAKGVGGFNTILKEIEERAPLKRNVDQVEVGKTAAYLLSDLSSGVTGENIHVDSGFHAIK
The data set is described as follows: Staphylococcus aureus FabI enzyme inhibition assay. The format is biochemical. Particulars: 30 minutes at room temperature, NADH consumption. Here is the method: FabI enzyme inhibition assays were carried out in half-area, 384-well microtitre plates. Compounds were evaluated in 40-μl assay mixtures containing 100 mM NaADA, pH 6.5 (ADA=N-[2-acetamido]-2iminodiacetic acid), 250 μM crotonoyl-CoA, 625 μM NADH and 50 μg/ml S. aureus ATCC 29213 FabI Inhibitors were typically varied over the range of 50 to 0.39 μM. The reaction mixtures were incubated for 30 minutes at room temperature and the reaction was stopped by adding 200 mM Tris buffer (pH 9.0) to create a pH-shift. The consumption of NADH was monitored by measuring the change in absorbance at […]. By comparing sample readings to those of negative (absence of compound) and positive (absence of enzyme) controls, the percent inhibition of enzymatic activity of the compounds was determined. A best-fit curve is fitted by a minimum of squares method. From this an IC50-value (expressed in μg/ml), resulting in 50% inhibition of enzymatic activity, was obtained.

The subject of data set [6] is E. coli tolC mutant. The data set can be described thus: MIC broth microdilution (CLSI), E. coli tolC mutant. The format is cell-based. Particulars: Escherichia coli. As for the experimental part: (§4) Minimum Inhibitory Concentrations (MICs) were determined in accordance with the Clinical and Laboratory Standards Institute (CLSI) methodology against aerobic bacteria (CLSI M07-A8) (see Clinical and Laboratory Standards Institute. 2009. Methods for dilution antimicrobial susceptibility tests for bacteria that grow aerobically. CLSI document M07-A8, Vol. 29, No. 2.) by the broth microdilution method with cation-adjusted Mueller-Hinton broth (CA-MHB) medium for the majority of organisms, except for Haemophilus influenza, where Haemophilis test medium (HTM) broth was used. Descriptions of the individual organisms can be found in the table. Where possible, ATCC standard strains were tested.
(§5) The inoculum density for the susceptibility testing was standardized to give a final inoculum of approximately 5×10^5 CFU/mL.
(§6) Stock solutions of the compounds were prepared in DMSO at concentrations of 1 mg/mL. Linezolid was prepared in DMSO at a concentration of 2 mg/mL. Stock solutions of all compounds were diluted into CA-MHB to give a range of two-fold dilutions, depending upon the sensitivity of the organism being tested.

The subject of data set [7] is H. influenza ATCC 49247. The data set can be described thus: MIC broth microdilution (CLSI), H. influenza ATCC 49247. The data set is classed as cell-based. The settings on record: Haemophilus influenzae, ATCC49247, HTM broth. Here is the method:
as §4, §5, §6
(In broth dilution the organism is exposed to a series of concentrations in liquid medium.)

The subject of data set [8] is E. coli ATCC 25922. The data set can be described thus: MIC broth microdilution (CLSI), E. coli ATCC 25922. The format is cell-based. The settings on record: Escherichia coli, ATCC25922. As for the experimental part: as §4, §5, §6
Data set [9] concerns S. aureus ATCC 29213. The data set is described as follows: MIC broth microdilution (CLSI), S. aureus ATCC 29213. The format is cell-based. The settings on record: Staphylococcus aureus, ATCC 29213 / MSSA, reference strain MSSA. As for the experimental part:
as §4, §5, §6

For data set [10], the system named is S. aureus ATCC 43300. The data set can be described thus: MIC broth microdilution (CLSI), S. aureus ATCC 43300. The data set is classed as cell-based. Particulars: Staphylococcus aureus, ATCC 43300 / MRSA, reference strain MRSA. As for the experimental part:
as §4, §5, §6

In brackets after ≈: the same amount, converted by molar mass. Like-named read-outs stand apart in the source and are kept apart here.

Usually CC50 stands for the concentration giving 50% cytotoxicity. In general, IC90 refers to the concentration needed for an effect of 90%. For orientation: AUC(0-inf) means the area under the concentration-time curve extrapolated to infinity. As a reminder, the bioavailability is dose-corrected exposure relative to a reference, in per cent. Read a high bioavailability as much systemic uptake. A word on the Tmax: it is the time at which the peak concentration occurs. As a reminder, the Cmax is the maximum level reached in the sampled fluid or tissue. The IC50 is the midpoint of a concentration-inhibition curve. As a reminder, the melting point is the temperature of the solid-liquid transition.

Consider `COc1ccccc1C1=CCCN(C(=O)/C=C/c2cnc3c(c2)CCC(=O)N3)CC1` [Co. No. 10], for which, in data set [1], the CC50 at 72 h was over 10.1 µg/mL. The IC90 in [2] was 0.09 µg/mL (≈ 0.223 µM). In addition, in [3], the IC90 amounted to 0.2 µg/mL. In [4] (i.v. 2.5 mg/kg), this compound showed a Vdz of 2.0 L/kg. In addition, in data set [4] (iv, i.v. 2.5 mg/kg), the AUC(0-inf) worked out at 2160 ng·h/mL, the C0 worked out at 3400 ng/mL, the half-life is 1.2 h and the clearance is 20 mL/min/kg. In data set [4] (po), this compound returned a bioavailability of 78%. Moreover, in data set [4] (po, p.o. 10 mg/kg), the AUC(0-inf) came to 7090 ng·h/mL, the Tmax is 0.5 h, the Cmax turned out to be 3740 ng/mL and the half-life was 2 h. In data set [5], this compound had an IC50 of 0.867 µM.

In the case of `O=C1CCc2cc(/C=C/C(=O)N3CCCN(c4ccccc4)CC3)cnc2N1` [Co. No. 11], the melting point was 156 °C. In [1], the CC50 at 72 h was over 9.46 µg/mL. The IC90 in data set [2] came to 3.24 µg/mL (≈ 8.61 µM). Further, in data set [3], the IC90 stood at 5.76 µg/mL. The compound further had an IC50 in [5] of 1.04 µM.

For the compound `Cc1ccc(F)cc1C1=CCN(C(=O)/C=C/c2cnc3c(c2)CCC(=O)N3)CCC1` [Co. No. 14], in data set [1], the CC50 at 72 h amounted to 9.73 µg/mL (≈ 24 µM). Moreover, in data set [2], the IC90 was 1.54 µg/mL (≈ 3.8 µM). In data set [3], the IC90 turned out to be 3.74 µg/mL. Also, the Vdz in data set [4] (i.v. 2.5 mg/kg) came to 1.0 L/kg. Also, in data set [4] (iv, i.v. 2.5 mg/kg), the AUC(0-inf) worked out at 6700 ng·h/mL, the C0 came out at 4550 ng/mL, the half-life is 2 h and the clearance was 6 mL/min/kg. The compound further registered a bioavailability in data set [4] (po) of 90%. In [4] (po, p.o. 10 mg/kg), the total exposure AUC(0-inf) is 23800 ng·h/mL, the Tmax was 1 h, the Cmax amounted to 3930 ng/mL and the half-life was 2.8 h. Moreover, half-maximal inhibition in data set [5] (IC50) was put at 0.863 µM.

Consider `O=C1CCc2cc(/C=C/C(=O)N3CCC=C(c4cccc(Cl)c4)CC3)cnc2N1` [Co. No. 19], for which the CC50 at 72 h in data set [1] was over 20.4 µg/mL. Also, the IC90 amounted to 0.35 µg/mL (≈ 0.858 µM) in data set [2] and 1.38 µg/mL in [3]. In addition, the MIC90 is 1 µg/mL (≈ 2.45 µM) in [6]; over 8 µg/mL in data set [7]; over 8 µg/mL in [8]; 0.125 µg/mL (≈ 0.306 µM) in data set [9]; 0.25 µg/mL (≈ 0.613 µM) in data set [10]. This compound also gave an IC50 in data set [5] of 1.05 µM.
